In publication PMC11513854, “De novo GTP synthesis is a metabolic vulnerability for the interception of brain metastases” (Cell Reports Medicine, 2024):

Tests used:
[1] = test system: patient-derived BMIC lines from lung-, breast-, and melanoma-BM; test: Dose-response curves of multiple BM lines; assay type: cell-based, human; conditions: 72-h treatment; below plasma Cmax concentration of 10 μM
Description: (§1) PrestoBlue readout is normalized to vehicle-treated cells. Data are presented as mean ± SD from 4 technical replicates. (C) Assessment of cell viability of patient-derived BMICs treated with MPA or its vehicle. PrestoBlue readout is normalized to vehicle-treated cells, p < 0.0001. […] Sphere count normalized to vehicle-treated cells, p < 0.0001. (F and G) Percent wound closure of DMSO control vs. MPA-treated cells expressed as an average of replicates (n = 3) and images are taken at 10× magnification. Wound closure (represented by dotted white line) is measured using ImageJ on Incucyte-derived images, p values are indicated. Scale bars are 400 μm. See also Videos S1, S2, S3, and S4. Comparisons of cell viability, sphere formation, and wound closure were made via a two-tailed unpaired t test and data are presented as mean ± SD from 3 to 4 technical replicates. […]
(§2) Dose-response assays were conducted using the same protocol apart from drugs being plated using 2-fold serial dilutions (20 μM - 39 nM) as previously described.[66] The half maximal inhibitory concentration (IC50) is determined by plotting percent cell viability by the logarithmic concentration of drug. IC80 concentrations will be used for subsequent functional assays (cell proliferation, sphere formation), as determined by the following formula: ICF=100−F/F^1/H×IC50 where F = fraction of maximal response and H = hill slope.

[2] = test system: normal brain cells; test: Dose-response curves of control normal brain cells; assay type: cell-based, human; conditions: 72-h treatment, same concentrations (below 10 μM)
Description: as §1, §2

[3] = test system: patient-derived BMICs; test: Pre-treatment PDX model, intracranial engraftment of lung-BMICs; assay type: in vivo, mice; conditions: vs placebo
Description: (§3) We decided to focus primarily on lung-BM for our in vivo experiments because they account for over 50% of all BM cases. […] This phenotype was also recapitulated in a melanoma-BM PDX model (Figures S2A and S2B).
Comparisons were made via a two-tailed unpaired t test and data are presented as mean ± SD from 4 to 5 technical replicates. p value is indicated. (C) Schematic of experimental timeline. […] IVIS, in vivo imaging system. Comparisons were made via a two-tailed unpaired t test and data are presented as mean ± SD from 4 to 5 technical replicates. p value is indicated. […] Comparisons were made via a log rank (Mantel-Cox) test, p value is indicated. (G) Quantification of human cells in mouse brains by flow cytometry at the humane endpoint. […]
All experimental procedures involving animal work has been reviewed and approved by McMaster University Animal Research Ethics Board. […] Mice are monitored weekly for signs of illness until endpoint.
Bioluminescent imaging was performed using an IVIS Spectrum In Vivo Imaging System (PerkinElmer) as per the manufacturer’s instructions. Imaging and quantification of signals is controlled by the analysis software Living Image (Xenogen). […] Regions of interest were quantified by bioluminescent signal (photons per second) using Living Image software for a standardized comparison between images.

[4] = test system: melanoma-BM; test: Pre-treatment melanoma-BM PDX model; assay type: in vivo, mice; conditions: pre-treated BMICs
Description: as §3
Fig S2. PDX m odels m im ic patient data, related to Figure 3. a, Representative IVIS bioluminescence images of […]
imaging system. Comparisons were made via a two-tailed unpaired t-test and data are presented as mean ± SED from 4-5 technical replicates. […]
following intracranial engraftment of patient-der ived BMICs. Comparisons were made via a Log-rank (Mantel-Cox) test, P value is indicated. c, CRUK0748, a patient- derived lung tumor cell line that metastasized to the brain of the patient it was retrieved from, was confirmed to metastasize to the brains of mice in our animal models following intrathoracic injection. CRUK0733, a patient-derived lung tumor cell line that has not metastasized to the brain of […]
anti-proliferative effect on BMICs isolated from the brains of mice following CRUK0748 metastasis to the brain.
(§4) (1 picture or pasted object on this page, not shown here)

[5] = test system: primary CRUK0748 lung tumor cells; test: Pre-treatment model, intrathoracic engraftment of primary lung tumor cells; assay type: in vivo, mice; conditions: cells pre-treated in vitro
Description: Mice injected with MPA-treated cells also experienced a significant increase in median survival time of 6 days compared to the mice injected with vehicle-treated cells (Figure 3H).
BMICs were dissociated into single cell suspensions and resuspended in phosphate buffered saline (PBS, Wisent Bio) with 2 mM EDTA. Cells were stained with APC-conjugated anti-human TRA-1-85 (CD147; Cat # 130-128-900, Miltenyi Biotec) and incubated for 15 min at room temperature. The viability dye 7-Aminoactinomycin D (7-AAD; Cat # 00-6993-50, eBioscience) was used to exclude dead cells; incubation with 7-AAD allows for penetration of compromised membranes and binding to DNA.[74] Live cells were analyzed using Summit 5.4 software on MoFlo XDP cell sorter (Beckman Coulter) to confirm human BMIC metastasis to the brain.

[6] = test system: primary lung CRUK0748 cell line; test: Orthotopic injection of CRUK0748, daily oral gavage treatment; assay type: in vivo, mice; conditions: 100 mg/kg daily oral gavage, vs placebo
Description: Next, we injected mice orthotopically with the primary lung CRUK0748 cell line and treated them daily as described earlier (see Figure S3A).
All experimental procedures involving animal work has been reviewed and approved by McMaster University Animal Research Ethics Board. Non-obese diabetic-severe combined immunodeficient IL2r γ ^null (NSG) mice are used for all experiments. Equal numbers of male and female mice were used for all experiments. Healthy mice were 6–8 weeks at time of use. Mice are anesthetized by gas anesthesia using isoflurane (4% induction, 2.5% maintenance) before procedure. Cells were engineered to express firefly luciferase and were injected intracardially, orthotopically, or intracranially as previously described.[13]^,[14]^,[63]^,[64]^,[65] […] Mice are monitored weekly for signs of illness until endpoint.
Fig S3. MPA m ust cross the blood brain barrier to eff ectively slow the progression of BM over tim e, related to Figures 3 and 4. a, Mice were either orthotopically (intratho racically) or intracardiac injected with lung BMICs, […]
seven days post-injection by IVIS, (c), no significant reduction in tumor burden following t reatment completion […]
to placebo, but (f) had the same number of human cells detected in their brains following humane endpoint by flow cytometry. n.s. = not significant.
as §4

`COc1c(C)c2c(c(O)c1C/C=C(\C)CCC(=O)O)C(=O)OC2` [MPA, Mycophenolic acid] was tested. Which “anti-BMIC activity against multiple BMIC lines” value [1] did it give?
Its value is “relatively high anti-BMIC activity”.

What about the “toxicity to normal brain cells” value [2] of the same molecule?
Its value is “nontoxic”.

And the brain tumor burden ([3]; BMICs pre-treated at IC80, 2 weeks post-injection, IVIS)?
Its brain tumor burden is “significantly reduced brain tumor burden”.

What about the survival ([3]; BMICs pre-treated at IC80, intracranial engraftment) of the same molecule?
Its survival is “survived significantly longer”.

And the “brain tumor burden and survival phenotype” value [4]?
Its value is “recapitulated”.

And the “TRA-1-85-positive human cells detected in brains” value ([5]; humane endpoint, flow cytometry, vs vehicle)?
Its value is “significantly fewer”.

What about the “increase in median survival time” value ([5]; intrathoracic injection, vs vehicle-treated cells) of the same molecule?
Its value is 6 days.

What about the “number of human cells detected in mouse brains” value ([6]; humane endpoint, flow cytometry) of the same molecule?
The value was “no significant difference”.

What about the survival [6] of the same molecule?
The survival was “survived significantly longer”.
